Patent US6030955A, “Methods of affecting intracellular phosphorylation of tyrosine using phosphorothioate oligonucleotides, and antiangiogenic and antiproliferative uses thereof” (The Trustees of Columbia University in The City of New York …, priority 1996, dated 2000)

Test system: cell surface flk-1
Assay: FACS analysis of blockade of anti-flk-1 MAb binding to C441 cells
Design: species or system mouse/human
Conditions: cells preincubated with 10 μg/ml heparin
Method: For binding studies, C441 cells were removed with 2 mM EDTA in PBS, washed with cold Hanks balanced salt solution supplemented with 1% BSA (HBSS-BSA) and then resuspended in 100 μl of the same buffer at a concentration of 1 million cells per sample. Where indicated, cells were incubated with 2 μM oligodeoxynucleotides of 10 μg/ml heparin. After a 30 minute incubation on ice, cells were washed and reincubated for 30 minutes with 10 μg of the appropriate MAb. After washing, a 1:40 dilution of goat anti-mouse lgG conjugated to FITC (TAGO) was added for a final 30 minute incubation on ice. Cells were then analyzed on a Coulter Epics Elite Cytometer.

Substance: heparin
- binding of anti-flk-1 MAb 73 to C441 cells: inhibition
- binding of anti-flk-1 MAb 115 to C441 cells: inhibition
